For one test, the target named is Mtb PDH (Lpd+DlaT+AceE) (Mycobacterium tuberculosis (strain ATCC 25618 / H37Rv), UniProt P9WHH9). The experiment in a line: PDH Inhibition Activity. It counts as biochemical.
In test [1] the target is lipoamide dehydrogenase (Lpd) (Mycobacterium tuberculosis (strain ATCC 25618 / H37Rv), UniProt P9WHH9). The experiment in a line: Lipoamide Dehydrogenase (Lpd) Inhibition Assay. It counts as biochemical.
Test [2] deals with Mycobacterium tuberculosis strains H37Rv. The test is described as follows: In Vitro Antitubercular H37Rv MIC Assay (resazurin). It is filed as cell-based. To be noted: 168 h; growth of Mycobacterium tuberculosis H37Rv, 7H9 medium, 7 days, tested 8-0.25 μg/mL. (Alamar Blue is a resazurin reagent that responds to reducing activity.)

SMILES strings stand for the structures. Converted amounts (≈) assume the structure as drawn. Like-named read-outs stand apart in the source and are kept apart here. A value given as a limit tells only on which side of the number the result lay.

Take `Cn1nc(-c2ccc(Cl)c(Cl)c2)nc2c(=O)n(C)c(=O)nc1-2` [Compound 604]: the figures for the IC50 (against Mtb PDH (Lpd+DlaT+AceE); in test [1]) were below 40 nM and 140 ± 10 nM, respectively. Also, in test [2], the minimum inhibitory concentration (MIC) (commonly the smallest concentration in the dilution series that meets the test's criterion for growth inhibition) was above 8 µg/mL.

`COc1ccc(-c2nc3c(=O)n(C)c(=O)nc-3n(C)n2)cc1` [Compound 605]: the IC50 (usually the concentration that gives 50% inhibition) is below 40 nM at Mtb PDH (Lpd+DlaT+AceE) (concentration required for 50% inhibition of PDH activity, fluorescence ex 360 nm / em 460 nm, read-out: PDH IC50) and 70 ± 10 nM in test [1] (concentration required for 50% inhibition of LPD activity, DTNB detection, OD405 nm). In test [2], this compound came in with an MIC of 8 µg/mL (≈ 26.7 µM).

The values above are taken from US9073941B2, “Compounds and methods for treating tuberculosis infection” (Academia Sinica, priority 2010, dated 2015).
